Here are results for eight molecules from PubChem BioAssay (NCI).

“And” between values parts separate entries of the source, which are not always exact repeats. Equal values may be shown once.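 These data come from cells grown in 96-well plates and exposed to compound for 48 hours at five concentrations. Abbreviation: GI50, concentration required for 50% inhibition of growth. TGI marks complete inhibition of growth.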

Holding throughout (test): NCI anticancer screen, dose series, 48 h
Test [1] deals with CAKI-1 renal.
The subject of test [2] is HCC-2998 colon.
The subject of test [3] is HOP-92 NSCLC.
The test system of test [4] is NCI-H460 lung.
The test system of test [5] is OVCAR-5 ovarian.
For test [6], the system named is SNB-19 CNS.
The test system of test [7] is U251 CNS.
In test [8] the test system is UACC-62 melanoma.
Test [9] has as its system UO-31 renal.

With `O=C(NC(=S)Nc1ccc(-c2nc3ccccc3[nH]2)cc1)c1ccc2ccccc2c1`, the GI50 was 1.96 µM in test [1]; 7.15 µM in test [2]; 2.17 µM in [3]; 4.29 µM in test [4]; 3.75 µM in [5]; 68.1 µM in test [6]. The GI50 in test [7] is 3.62 µM; in test [8], 4.06 µM; in [9] it was 1.92 µM. The TGI was 4.58 µM in test [1]; more than 100 µM in test [2]; 7.02 µM in test [3]; more than 100 µM in test [4]; 16.6 µM in test [5]; more than 100 µM in test [6]. Also, the figures for the TGI in [7], in [8] and in test [9] were 18.1 µM, more than 100 µM and 3.65 µM, respectively.

For the molecule `O=C(/C=C/c1cccnc1)c1ccccc1`, the GI50 in test [1] was 7.21 µM; in test [2], 14.9 µM; in test [3], 4.62 µM; in test [4] it was 7.07 µM; in [5] it was 14.7 µM; in [6], 11.7 µM. Moreover, the GI50 in test [7] is 3.85 µM; in test [8] it was 5.14 µM; in test [9], 11.4 µM. The TGI was found to be 20.6 µM in [1]; 29.1 µM in [2]; 19.2 µM in test [3]; 21.2 µM in test [4]; 33.3 µM in test [5]; 25.2 µM in test [6]. In addition, the TGI in test [7] came to 15.1 µM; in test [8], 19.2 µM; in test [9], 25.5 µM.

For `CC[n+]1c(/C=C/c2ccc(N3CCCC3)cc2)cccc1/C=C/c1ccc(N2CCCC2)cc1`, the GI50 in [1] was 0.145 µM; in test [2] it was 0.181 µM; in test [3] it was 0.342 µM; in test [4], 0.293 µM; in test [5] it was 0.476 µM; in [6], 0.31 µM. Moreover, the GI50 is 0.202 µM in test [7]; 0.356 µM and 0.387 µM in test [8]; 0.376 µM in test [9]. For the same molecule, the TGI is 1.36 µM in test [1]; 0.338 µM in test [2]; 1.41 µM in test [3]; 1.15 µM in [4]; 1.48 µM in test [5]; 1.55 µM in [6]. Further, the TGI in test [7] is 1.04 µM; in [8], 1.7 µM and 1.67 µM; in test [9], 1.6 µM.

For the molecule `Nc1n[nH]c2ccc([C@H]3[C@@H]4C5CCC(C5)[C@@H]4c4c(ccc5[nH]ncc45)N3S(=O)(=O)C3CC3)cc12` (stereo partly drawn), the GI50 in test [1] is 0.156 µM; in [2] it was 0.199 µM; in test [3] it was 0.422 µM; in test [4], 0.181 µM; in [5], 0.272 µM; in [6], 0.21 µM. For the same molecule, the GI50 in [7] is 0.208 µM; in [8], 0.137 µM; in [9], 0.298 µM. Also, the TGI was 3.42 µM in test [1]; 8.42 µM in [2]; 11.1 µM in test [3]; 8.38 µM in [4]; 26.1 µM in test [5]; more than 38.3 µM in test [6]. In addition, the TGI was 17.5 µM in test [7], 5.54 µM in test [8] and 29.2 µM in test [9].

As for `COc1ccc2c(c1)OC(N)=C(C#N)C2c1ccc(F)c(F)c1` (stereo not drawn), the GI50 in [1] is 0.394 µM; in test [2], 2.5 µM; in test [3], 6.53 µM; in [4], 0.41 µM; in [5] it was 2.84 µM; in test [6], 0.58 µM. Besides, the GI50 was 0.425 µM in [7], 0.418 µM in test [8] and 0.648 µM in test [9]. Moreover, the TGI in [1] was more than 100 µM; in test [2] it was more than 44.9 µM; in [3], 69.3 µM; in [4] it was 41.6 µM; in test [5], more than 100 µM; in test [6], more than 100 µM. Further, the TGI in [7] was more than 45.5 µM; in test [8], more than 100 µM; in test [9], more than 100 µM.

Turning to `CCCC(c1cc(C(C)(C)C)c(O)cc1C)c1cc(C(C)(C)C)c(O)cc1C`, the TGI in test [1] came out at 15.3 µM; in test [2], 3.3 µM; in test [3], 22.5 µM; in [4] it was 3.92 µM; in [5], 4.54 µM; in test [6], 16.9 µM. Moreover, the TGI in [7] worked out at 6.85 µM; in test [8], 4.95 µM; in test [9] it was 11.2 µM.

As to `Nc1ncnc2occ(-c3ccc(NC(=O)Nc4cc(C(F)(F)F)ccc4F)cc3)c12`, the GI50 is 4.36 µM and 1.78 µM in test [1]; 8.02 µM and 3.98 µM in test [2]; 3.98 µM and 3.4 µM in test [3]; 4.86 µM and 2.96 µM in [4]; 6.44 µM and 5.95 µM in test [5]; 8.29 µM and 5.71 µM in test [6]. For the same molecule, the GI50 in test [7] was 7.26 µM and 4.26 µM; in test [8], 4.29 µM and 2.33 µM; in test [9], 4.72 µM and 1.48 µM. Moreover, the TGI in test [1] was 18.2 µM and 9 µM; in [2], 19 µM and 8.87 µM; in test [3], 12.1 µM and 11.5 µM; in test [4], 11.2 µM and 6.94 µM; in test [5], 16.2 µM and 13.7 µM; in [6], 23.3 µM and 19.5 µM. Besides, the TGI in [7] is 22.8 µM and 11.2 µM; in test [8] it was 9.76 µM and 5.8 µM; in test [9] it was 14.1 µM and 7.88 µM.

In the case of `CC(=O)NS(=O)(=O)c1ccc(-n2nc(-c3ccccc3)cc2-c2cc(O)ccc2O)cc1`, the GI50 in [1] was more than 100 µM; in test [3], more than 100 µM; in test [4] it was more than 100 µM; in [5] it was more than 100 µM; in test [6] it was more than 100 µM; in test [7], 61.6 µM. For the same molecule, the GI50 is 62 µM in [8] and more than 100 µM in test [9]. For the same molecule, the TGI in test [1], in test [3], in test [4], in test [5], in test [6] and in test [7] was more than 100 µM each time. In addition, the TGI in test [8] and in test [9] was more than 100 µM throughout.
